Assay results from patent US20250082618A1, “DOSING REGIMENS USING TOPICAL ROFLUMILAST COMPOSITIONS” (ARCUTIS BIOTHERAPEUTICS, INC., priority 2023, published 2025).

Tested on: patients with atopic dermatitis
Test: Phase III open-label trial: vIGA-AD, maintenance (BIW) dosing and disease control
Assay type: in vivo, human
Procedure: The vIGA-AD is a static evaluation of qualitative overall AD severity. This global assessment scale is an ordinal scale with five severity grades (reported only in integers of 0 to 4). Each grade is defined by a distinct and clinically relevant morphologic description that minimizes inter-observer variability (see Table 1). vIGA-AD is evaluated for the entire body except the scalp, palms, and soles.
A Phase III, multicenter, open-label clinical trial was carried out to investigate the use of a topical roflumilast emollient cream to treat patients with atopic dermatitis. The primary objective of this study was to assess long-term safety in a multicenter, open-label, single-arm study in subjects with atopic dermatitis treated with either […] (for subjects ≥6 years of age) or 0.05% (for subjects between 2 to 5 years of age) topical roflumilast cream.
The primary endpoints of the study were adverse events or serious adverse events. The secondary endpoints of this study were validated investigator Global assessment-atopic dermatitis (“vIGA-AD”) value 0 or 1 at each assessment, vIGA-AD success (defined as vIGA-AD value of 0 or 1 plus a 2-grade improvement from baseline), Worst Itch-Numeric Rating Score (“WI-NRS”) score over time, and Eczema Area and Severity Index (“EASI”) score over time.
All patients enrolled in this phase III study applied either a 0.15% or 0.05% roflumilast topical cream once daily until Week 4 of the study. Patients between 2-5 years of age received 0.05% roflumilast topical cream and patients 6 years of age or older received 0.15% roflumilast. Subjects who reached 6 years of age during the study were switched from 0.05% to 0.15% roflumilast topical cream at the first scheduled clinical visit following their sixth birthday. Study medication was applied for up to 24 or 52 weeks to all affected areas, except on the scalp. Beginning at the Week 4 visit, any subject who achieved vIGA-AD of 0 as confirmed by the Investigator at a scheduled or unscheduled clinical visit, was switched from daily to twice weekly administration of roflumilast topical cream. Instructions for the twice weekly administration were to apply the roflumilast topical cream on two nonconsecutive days per week (e.g. Monday and Thursday) to areas commonly and/or most recently affected by atopic dermatitis and any areas where atopic dermatitis was developing.
Clinical visits and phone contact were scheduled at Weeks 4, 12, 18, 24, 30, 36, 44, and 52 of the study. At clinical visits, subjects receiving twice weekly treatment (“maintenance treatment”) were permitted to continue maintenance treatment if vIGA-AD was either 0 or 1. Subjects evaluated at clinical visits with vIGA-AD 2 or greater were instructed to resume daily administration of roflumilast topical cream. Patients were also permitted to resume daily dosing, despite a vIGA-AD of 1, if signs or symptoms of atopic dermatitis were not adequately controlled with maintenance therapy.
Median duration of the first maintenance dosing period was ≥124 days for the 24-week cohort and ≥270 days for the 52-week cohort. 65% percent of these patients were on a maintenance dosing regimen through the final visit. Disease control was defined as a vIGA-AD score of 0, a switch to a maintenance dosing regimen, and a maintenance of a vIGA-AD score of 0 or 1.

Structure (SMILES): O=C(Nc1c(Cl)cncc1Cl)c1ccc(OC(F)F)c(OCC2CC2)c1 [roflumilast, N-(3,5-dichloropyrid-4-yl)-3-cyclopropylmethoxy-4-difluoromethoxybenzamide]
- Median duration of the first maintenance (BIW) dosing period (24-week cohort): ≥ 124 days
- Median duration of the first maintenance (BIW) dosing period (52-week cohort): ≥ 270 days
- number of patients who achieved vIGA-AD=0 and switched to maintenance (BIW) dosing (by Week 24 and Week 52): 132
- patients who achieved vIGA-AD=0 and switched to maintenance (BIW) dosing (by Week 24 and Week 52, once daily, twice weekly after vIGA-AD 0): 20.1%
- patients on maintenance (BIW) dosing regimen through the final visit (of the 132 patients who switched): 65%
